Measurements from US12653896B2, “Targeted dendrimer conjugates” (Starpharma Pty Ltd, priority 2019, dated 2026).

Legend:
Type in all cases: cell-based, human
[1] = tested on: MDA-MB-231 cells; assay: In vitro association study (flow cytometry, Cy5), MDA-MB-231; settings: MDA-MB-231, 3.33 nM, in words
Method: (§1) MDA-MB-231, MDA-MB-231/HER2 (HER2 knock in) (as described above), or SKOV-3 cells were seeded in a 24-well plate (1×10^5 cells per well) in 500 μL of appropriate growth media with the addition of 10% (v/v) fetal bovine serum (FBS) and incubated with compound 36 or 41 at 3.33 nM, […] atmosphere. After incubation, non-binding/non-associating particles were removed from adherent cells by gently washing with DPBS three times (300 μL/well). Cells were removed from plates by treatment with TrypLE™ Express Enzyme (1×), no phenol red (150 μL/well) for 5-10 min at room temperature. The plates were then placed on ice. Cellular binding and association of sample were then determined through flow cytometry by the acquisition of the signal from Cy5.

[2] = tested on: MDA-MB-231/HER2 cells; assay: In vitro association study (flow cytometry, Cy5), MDA-MB-231/HER2; settings: MDA-MB-231/HER2, 3.33 nM
Method: as §1

[3] = tested on: SKOV-3 cells; assay: In vitro association study (flow cytometry, Cy5), SKOV-3; settings: SKOV-3, 3.33 nM
Method: MDA-MB-231, MDA-MB-231/HER2 (HER2 knock in) (as described above), or SKOV-3 cells were seeded in a 24-well plate (1×10^5 cells per well) in 500 μL of appropriate growth media with the addition of 10% (v/v) fetal bovine serum (FBS) and incubated with compound 36 or 41 at 3.33 nM, with incubation time varied from 1 to 24 h at 37° C. in a 5% CO2 humidified atmosphere. After incubation, non-binding/non-associating particles were removed from adherent cells by gently washing with DPBS three times (300 μL/well). Cells were removed from plates by treatment with TrypLE™ Express Enzyme (1×), no phenol red (150 μL/well) for 5-10 min at room temperature. The plates were then placed on ice. Cellular binding and association of sample were then determined through flow cytometry by the acquisition of the signal from Cy5.

[4] = tested on: MDA-MB-231 cells; assay: Confocal cellular uptake, MDA-MB-231; settings: MDA-MB-231, 3.33 nM, 24 h
Method: MDA-MB-231, MDA-MB-231/HER2 and SKOV-3 cells were plated at 1.0×10^4 cells per well into μ-slide 8 well chambered coverslip (ibidi) and allowed to adhere overnight at 37° C., 5% CO2. compounds 36 and 41 (3.33 nM) were then added and allowed to incubate for 1, 3, 6 and 24 hrs. The cells were washed and then fixed with 1% paraformaldehyde for 20 min at room temperature. The cell membrane was stained with Alexa Fluor 488-wheat germ agglutinin (AF488-WGA, 5 μg mL^−1) in DPBS at room temperature for 10 min. The cell nuclei were counterstained with 4′,6-diamidino-2-phenylindole (DAPI, 2 μg mL^−1) in DPBS at room temperature for 10 min. Fluorescence images and optical sections were collected using a confocal microscope (Leica SP8). Images were processed with Fiji (Image J 1.52n).

(MeTzPh)PEG4CO-NHPEG24CO—[N(PN)2][Lys]8[((α-NH-Cy5)1-4(α-NH-Glu-Val-Cit-PAB-MMAE)4-7)(ε-NH-COPEG1100)8] [Compound 36]
binding over 24 h [1]: minimal binding | Mean fluorescence intensity ([2]; 24 h, 37° C.): 16.05±1.89 | binding over 24 h ([2]; in words): minimal binding | Mean fluorescence intensity ([3]; 24 h, 37° C.): 16.4±6.86 | binding over 24 h ([3]; in words): minimal binding | association with cells (confocal) [4]: little
